Data taken from patent US8372866B2, “2-aryl and 2-heteroaryl 4H-1-benzopyran-4-one-6-amidino derivatives, new pharmacological agents for the treatment of arthritis, cancer and related pain” (Rottapharm S.p.A., priority 2008, dated 2013).
Counter-ions that a name gives are not always drawn.

Tests used:
[1] = tested on: mechanical hyperalgesia associated with STZ-induced diabetes; test: STZ-induced diabetes mechanical hyperalgesia, model of neuropathic pain (Randall-Selitto); format: in vivo, rat
Method: Painful diabetic neuropathy is one of the most common complications of insulin-dependent diabetes in man; in particular, diabetes can be associated with neuropathic pain which fails to be treated by classical analgesics. Streptozotocin (STZ)-induced diabetes in the rat has been increasingly used as a model of painful diabetic neuropathy to assess the efficacies of potential analgesic agents (C. Courteix, Pain 1993, 53, 81-8). A representative compound of the invention was tested for efficacy in reducing mechanical hyperalgesia associated with STZ-induced diabetes in the rat, according to the experimental model as described by the literature. Diabetes was produced with the injection of a single dose (75 mg/Kg i.p.) of STZ. In the following four weeks after the induction of diabetes the clinical symptoms (weight, body and skin temperature, motility and hyperglycemia) progressively developed by the animals, are strictly monitored.
After four weeks, the scores obtained in diabetic rats to various pain stimuli (in particular mechanical stimuli) were greater than those in normal rats, indicating hyperalgesia. The hyperalgesia induced by diabetes was evaluated using the Randall-Selitto method as above described, and quantitated using the analgesimeter. Also in this case, the difference in the mechanical pain threshold between the basal value (generally 230-250 g) and the one tolerated by the animals treated with the drug, is defined as mechanical hyperalgesia. The compound of the invention was administered i.p. (solution, Tween 80, 10% in saline) at different doses, and mechanical hyperalgesia was measured at the reported time, as maximum percent effect (MPE) which represents the difference (%) in pain threshold between the animals treated with the drug and the controls that received only the vehicle, compared with the weight borne by naïf non-diabetic controls. A 100% protection means that the diabetic animals treated with the compound can tolerate the same stimulus (weight) as the naïf non-diabetic animals. MPE higher than 100% means that the diabetic animal treated with the compound can tolerate stimuli (weight) higher than the control non-diabetic animals (hypoalgesia).
In Table 4, the effect of a representative compound of formula (I), in the above described model of neuropathic pain, is compared with some known pharmacological standards used for the clinical treatment of this pathology. In particular, from the MPE data at 0.5 hrs, the doses yielding a protection of 50% (ED50) and 100% (ED100) have been calculated.

[2] = tested on: Zymosan-induced mechanical hyperalgesia; test: Zymosan-induced mechanical hyperalgesia (Randall-Selitto), model of inflammatory pain; format: in vivo, rat
Method: In this model, typically a male Sprague-Dawley or Wistar rat (200-250 g) receives an interplantar injection of 3 mg/100 μl zymosan into one hind paw. A marked inflammation occurs in this hind paw. Drugs are administered orally for evaluation of efficacy, 30 min. before the inflammatory insult. […] The quantisation of the analgesic effect is achieved by an analgesimeter, which consists in applying to the inflamed paw an increasing weight (from 130-140 g up to 500 g). […] For each test compound, at least three doses were used, with 8 animals per group. Compounds of the invention were tested at 10, 20 and 40 mg/Kg.

[3] = tested on: CFA-induced prolonged inflammation; test: CFA model of chronic inflammatory pain (Randall-Selitto); format: in vivo, rat; conditions: for MPE 0.5 hrs / MPE 1.5 hrs / MPE 3 hrs: NE = not effective
[4] = molecular target: T1, recombinant human aggrecanase 2 (ADAMTS-5) (Homo sapiens, UniProt Q9UNA0); test: InviLISA Aggrecanase activity assay, aggrecanase 2; format: biochemical; conditions: inhibitors tested at 10 μM final concentration
T1 construct: ADAMTS-5 aminoacids S262-G625 with C-terminal tag; purchased Invitek GmbH, Berlin
T1 sequence (Q9UNA0 262-625): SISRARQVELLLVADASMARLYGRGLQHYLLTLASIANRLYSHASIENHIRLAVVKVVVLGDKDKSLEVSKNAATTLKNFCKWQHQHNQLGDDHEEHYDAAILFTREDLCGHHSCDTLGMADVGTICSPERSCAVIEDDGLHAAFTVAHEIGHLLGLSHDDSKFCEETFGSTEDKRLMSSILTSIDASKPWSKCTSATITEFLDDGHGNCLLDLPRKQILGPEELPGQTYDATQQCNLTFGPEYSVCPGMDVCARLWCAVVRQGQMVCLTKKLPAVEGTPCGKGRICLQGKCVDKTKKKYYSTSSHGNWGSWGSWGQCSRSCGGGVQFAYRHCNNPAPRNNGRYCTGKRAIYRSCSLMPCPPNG
Method: (§1) The InviLISA Aggrecanase activity assay (Invitek GmbH, Berlin) was used to screen and characterise aggrecanase inhibitors. The assay was carried out in two steps, according to Will et al. (Will H, Dettloff M, Bendzko P, Svenshnikov P, A Quantitative Assay for aggrecanase Activity; 2005, Journal of Biomolecular Techniques, 16 (4), 459-472). A recombinant fragment of human aggrecan interglobular domain (aggrecan-IGD; T331-G458) is first digested with aggrecanase. Proteolytic cleavage of the substrate releases an aggrecan peptide with the N-terminal sequence ARGSVIL (ARGSVIL-peptide), that was then quantified with two monoclonal anti-peptide antibodies (ELISA module). For precise calculation of product, ARGSVIL-peptide standard concentrations were run in parallel.
(§2) 1) Proteolysis of aggrecan-IGD by aggrecanase. Aggrecan-IGD was incubated with standard recombinant human aggrecanase 1 (ADAMTS-4 aminoacids F213-A579 with C-terminal tag) or standard recombinant human aggrecanase 2 (ADAMTS-5 aminoacids S262-G625 with C-terminal tag) in the absence (total enzymatic activity) or presence (modulated enzymatic activity) of inhibitors to be tested. Enzymes were pre-incubated with the inhibitors or the appropriate concentration of diluent as control (DMSO 0.25% final concentration in proteolysis), at 4° C. for 30 min prior to assaying their activity. Five microliters of mix enzyme-inhibitor were added to the substrate (0.1 μM final concentration) in a total volume of 100 μL and incubated for 15 minutes at 37° C. The reaction was terminated with EDTA-containing buffer. The inhibitors were tested at 10 μM final concentration and compounds achieving ≧50% inhibitory effect were evaluated for IC50 calculation, in a range generally extended from 0.1 to 10 μM final concentration.
(§3) 2) Aggrecan peptide ELISA. ARGSVIL-peptide standard, proteolytic digestion of Aggrecan-IGD with standard aggrecanases and test samples were incubated in microtiter wells pre-coated with anti-ARGSVIL-neoepitope antibody. ARGSVIL-peptide is bound to the coated antibody, while other components are removed by washing and aspiration. The bound ARGSVIL-peptide was detected with a second peroxidase-labelled antibody. Any excess of the conjugate was removed by washing and aspiration. The amount of peroxidase bound to different wells was determined in reactions with peroxidase substrate TMB. The reactions are stopped by addition of sulphuric acid solution and absorbance is read at 450 nm in a microtiter plate spectrophotometer.

[5] = molecular target: T2, recombinant human aggrecanase 1 (ADAMTS-4) (Homo sapiens, UniProt O75173); test: InviLISA Aggrecanase activity assay, aggrecanase 1; format: biochemical; conditions: inhibitors tested at 10 μM final concentration
T2 construct: ADAMTS-4 aminoacids F213-A579 with C-terminal tag; purchased Invitek GmbH, Berlin
T2 sequence (O75173 213-579): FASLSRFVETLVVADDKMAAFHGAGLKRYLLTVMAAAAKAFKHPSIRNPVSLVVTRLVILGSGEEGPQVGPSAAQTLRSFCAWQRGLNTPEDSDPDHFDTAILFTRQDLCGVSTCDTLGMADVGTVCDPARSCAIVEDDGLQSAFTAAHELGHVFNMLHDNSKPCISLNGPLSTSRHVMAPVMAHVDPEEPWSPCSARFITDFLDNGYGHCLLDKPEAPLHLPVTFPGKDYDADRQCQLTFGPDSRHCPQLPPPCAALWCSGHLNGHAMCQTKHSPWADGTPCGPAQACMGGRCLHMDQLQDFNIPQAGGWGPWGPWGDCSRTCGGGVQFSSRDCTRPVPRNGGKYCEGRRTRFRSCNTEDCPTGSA
Method: as §1, §2, §3

[6] = 10 mg/Kg IP, NE = not effective
[7] = 30 mg/Kg IP, NE = not effective

Compound: CC(=N)Nc1ccc2oc(-c3cccc(-n4ccnc4)c3)c(O)c(=O)c2c1 (as salt: hydrochloride) [Example 8, 2-[(3-(imidazol-1-yl)-phenyl]-3-hydroxy-6-[(1-iminoethyl)amino]-4H-1-benzopyran-4-one dihydrochloride]
- melting point: 281 to 281.5 °C

Compound: N=C(CC1CC1)Nc1ccc2oc(-c3ccc(O)cc3)c(O)c(=O)c2c1 (as salt: hydrochloride) [Example 11, 2-(4-hydroxyphenyl-3-hydroxy-6-[(1-iminoethyl-2-cyclopropyl)amino]-4H-1-benzopyran-4-one hydrochloride]
- melting point: 281 to 281.5 °C

Compound: N=C(CC1CC1)Nc1ccc2oc(-c3ccc(-n4ccnc4)cc3)c(O)c(=O)c2c1 (as salt: hydrochloride) (hydrate or solvate) [Example 6, 2-[(4-imidazol-1-yl)-phenyl]-3-hydroxy-6-[(1-iminoethyl-2-cyclopropyl)amino]-4H-1-benzopyran-4-one dihydrochloride monohydrate]
- melting point: 249.1 to 251.1 °C

Compound: CC(=N)Nc1ccc2oc(-c3ccc(O)nc3)c(O)c(=O)c2c1 (as salt: hydrochloride) [Example 21, 2-(6-hydroxypyridin-3-yl)-3-hydroxy-6-[(1-iminoethyl)amino]-4H-1-benzopyran-4-one hydrochloride]
- melting point: 284.5 to 286 °C

Compound: COc1ccc(-c2oc3ccc(NC(C)=N)cc3c(=O)c2O)cc1 (as salt: hydrochloride) (hydrate or solvate) [Example 12, 2-(4-methoxyphenyl)-3-hydroxy-6-[(1-iminoethyl)amino]-4H-1-benzopyran-4-one hydrochloride monohydrate]
- melting point: 260.1 to 261.1 °C

Compound: CC(=N)Nc1ccc2oc(-c3ccc4c(c3)OCO4)cc(=O)c2c1 (as salt: hydrochloride) [Example 4, 2-(benzo[1,3]dioxol-5-yl)-6-[(1-iminoethyl)amino]-4H-1-benzopyran-4-one hydrochloride]
- melting point: 272.7 to 273.3 °C

Compound: CC(=N)Nc1ccc2oc(-c3ccc4c(c3)CCO4)c(O)c(=O)c2c1 (as salt: hydrochloride) [Example 15, 2-(dihydrobenzofuran-5-yl)-3-hydroxy-6-[(1-iminoethyl)amino]-4H-1-benzopyran-4-one hydrochloride]
- melting point: 291 to 292 °C

Compound: CC(=N)Nc1ccc2oc(-c3ccccc3)cc(=O)c2c1 (as salt: hydrochloride) [Example 1, 2-phenyl-6-[(1-iminoethyl)amino]-4H-1-benzopyran-4-one hydrochloride]
- melting point: 278.2 to 278.8 °C

Compound: CC(=N)Nc1ccc2oc(-c3ccc(-n4ccnc4)cc3)c(O)c(=O)c2c1 (as salt: hydrochloride) [Example 5, 2-[(4-imidazol-1-yl)-phenyl]-3-hydroxy-6-[(1-iminoethyl)amino]-4H-1-benzopyran-4-one hydrochloride]
- melting point: 311.7 to 312.1 °C

Compound: COCCC(=N)Nc1ccc2oc(-c3ccc4c(c3)OCO4)c(O)c(=O)c2c1 (as salt: hydrochloride) [Example 19, 2-(benzo[1,3]dioxol-5-yl)-3-hydroxy-6-[(1-iminopropyl-3-methoxy)amino]-4H-1-benzopyran-4-one hydrochloride]
- melting point: 188.5 to 190 °C

Compound: CC(=N)Nc1ccc2oc(-c3ccc4c(c3)OCO4)c(O)c(=O)c2c1 (as salt: hydrochloride) [Example 16, 2-(benzo[1,3]dioxol-5-yl)-3-hydroxy-6-[(1-iminoethyl)amino]-4H-1-benzopyran-4-one hydrochloride]
- melting point: 262.3 to 262.9 °C

Compound: CC(=N)Nc1ccc2oc(-c3ccccc3)cc(=O)c2c1 [Example 1, 2-phenyl-6-[(1-iminoethyl)amino]-4H-1-benzopyran-4-one hydrochloride]
- MPE 0.5 hrs ([1]; 3 mg/Kg IP, NE = not effective): 74%
- MPE 1.5 hrs ([1]; 3 mg/Kg IP, NE = not effective): 25%
- MPE 0.5 hrs [1, 6]: 109%
- MPE 1.5 hrs [1, 6]: 54%
- MPE 0.5 hrs [1, 7]: 113%
- MPE 1.5 hrs [1, 7]: 39%
- MPE 3 hrs [1, 7]: 39%
- MPE 6 hrs [1, 7]: 31%
- protection ([1]; at the doses of 10 and 30 mg/kg): higher than 100%
- efficacy in STZ neuropathic pain paradigm ([1]; rat, in vivo): high efficacy
- ED50 ([2]; Rattus norvegicus, 4 h, read-out: ED50 4 hrs): 7.9 mg/kg
- ED100 4 hrs ([2]; rat, OS, 4 hrs after zymosan, NC = not calculable): 19 mg/kg
- MPE 0.5 hrs ([3]; 3 mg/Kg IP): 30%
- MPE 1.5 hrs ([3]; 3 mg/Kg IP): 50%
- MPE 3 hrs ([3]; 3 mg/Kg IP): 40%
- MPE 0.5 hrs ([3]; 10 mg/Kg IP): 62%
- MPE 1.5 hrs ([3]; 10 mg/Kg IP): 39%
- MPE 0.5 hrs ([3]; 30 mg/Kg IP): 261%
- MPE 1.5 hrs ([3]; 30 mg/Kg IP): 190%
- MPE 3 hrs ([3]; 30 mg/Kg IP): 37%
- ED100 0.5 hrs ([3]; IP, calculated from the MPE data at 0.5 hrs): 8.06 mg/kg
- ED50 ([3]; Rattus norvegicus, ip, 0.5 h, read-out: ED50 0.5 hrs): 4.86 mg/kg
- inhibition at 10 µM [4]: 30%
- inhibition at 10 µM [5]: 10%
